Assay results taken from patent US9067928B2 (Genentech, Inc., priority 2008, dated 2015).

System: Mcl-1-/- mouse embryonic fibroblasts (MEF)
Test: Cell viability assay for Mcl-1-/- mouse embryonic fibroblasts (CellTiter-Glo)
Type: cell-based
Conditions: Fibroblast, 1% Fetal Bovine Serum, read-out: MEF Mcl-1-/- KO cell viability results (EC50)
Source text: a. Cell Viability Assay for Mcl-1^−/− Mouse Embryonic Fibroblasts (MEF):
Neutralization of both […] and Mcl-1 anti-apoptotic proteins in normal cells is required before a cell undergoes apoptosis via the downstream Bax/Bak pathway See, Chen. L. et al. Mol. Cell (2005) 17, 393-403; Willis, S. N. et al. Genes Dev. (2005) 19, 1294-1305. A compound that only targets Bcl-xL should not affect normal cells, but could kill certain cancer cells if they rely more on Bcl-xL and less on other anti-apoptotic proteins, e.g. Mcl-1, for survival. To mirror this, compounds of the invention were tested for its effect on survival of wild type (wt) mouse embryo fibroblasts (MEFs), Bax/Bak double knockout (BB DKO) MEFs, MEFs that expressed Noxa, and MEFs that expressed Bad. Noxa specifically neutralizes Mcl-1. […] MEFs that express Noxa mirror cancer cell types that are reliant on Bcl-xL for survival and should be much more sensitive to killing by a Bcl-xL targeting compound than MEFs where both Bcl-xL and Mcl-1 are protective.
In this assay, Mcl-1^(−/−) cells were used to confirm that cell apoptosis in the presence of BH3 mimetic small molecules was due to predominantly Bcl-xL inactivation. This inactivation leaves Bax/Bak unconstrained and results in apoptosis. The […]-GLO Luminescent Cell Viability Assay is a homogeneous method of determining the number of viable cells in culture based on quantitation of the ATP present. The amount of ATP correlates with the presence of metabolically active cells such that following cell lysis the amount of ATP present is proportional to the amount of luminescence measured.
Mcl-1^(−/−) mouse embryonic fibroblasts (MEFs) are an adherent cell line prepared in house. MEFs were grown in Iwaki 75 cm^2 tissue culture flasks (cat #3123-075) with FMA media which consists of: • 89% DME Kelso • 10% heat-inactivated foetal calf serum (FCS) (Hyclone cat #SH30396.03) • 1% 10 mM asparagine (Fluka cat #11149) • 275 μl of a 1:2000 dilution of 2-mercaptoethanol is added to the final 500 ml volume of FMA (Sigma cat #M7522; diluted in MT-PBS)
FMA was stored at 4° C. and used at 37° C. MEFs were cultured in FMA media and harvested in MT-PBS and trypsin. For MEF cell viability assays, cells were seeded separately in plates with 10% FCS-FMA and 1% FCS-FMA. […]
Automated Systems that can be used in this assay include: 1) Multidrop—The MULTIDROP 384 (ThermoLabsystems) dispenser was used to dispense cells aseptically into the assay plates: 2) MiniTrak—The […] system from Perkin Elmer was used for titration of the compound plates; 3) Zymark—The ZYMARK SCICLONE ALH3000 System with 100 nL pintool head was used for compound addition to the cells; 4) EnVision—The ENVISION plate reader was used to measure the viability via the detection of the luminescence. […]

Work on O=C(O)c1nc(-c2ccc3c(c2)N(C(=O)Nc2nc4ccccc4s2)CCC3)sc1-c1ccc(-c2ccccc2)cc1 [Example 92, 2-(1-(benzo[d]thiazol-2-ylcarbamoyl)-1,2,3,4-tetrahydroquinolin-7-yl)-5-(biphenyl-4-yl)thiazole-4-carboxylic acid] yielded an EC50 of 150 nM.
